Earlier results, collected in patent publication US20090110646A1, “Product for Treating the Skin and Mucous Membranes, and Relative Method of Preparation” (priority 2005, published 2009).

O=C(O)C(Cl)(Cl)Cl [TCA, trichloracetic acid]
depth of dermal necrosis (solution of TCA at about 30-40% w/w): 0.3-0.5 mm
effect on skin (solution of TCA in a concentration of less than 25% w/w): exfoliation of the epidermis
time of eschar (crust) until skin renewal (very concentrated TCA): 7 to 10 days
